Values of other authors, collected in US11185594B2, “(Anti-HER2 antibody)-drug conjugate” (DAIICHI SANKYO COMPANY, LIMITED, priority 2014, dated 2021).

Legend:
[1] = test system: human tumor; details: human tumor subcutaneously transplanted mouse model
[2] = biological target: T1, topoisomerase I (Homo sapiens, UniProt P11387); details: compared with SN-38 and topotecan
T1 sequence (P11387 1-765): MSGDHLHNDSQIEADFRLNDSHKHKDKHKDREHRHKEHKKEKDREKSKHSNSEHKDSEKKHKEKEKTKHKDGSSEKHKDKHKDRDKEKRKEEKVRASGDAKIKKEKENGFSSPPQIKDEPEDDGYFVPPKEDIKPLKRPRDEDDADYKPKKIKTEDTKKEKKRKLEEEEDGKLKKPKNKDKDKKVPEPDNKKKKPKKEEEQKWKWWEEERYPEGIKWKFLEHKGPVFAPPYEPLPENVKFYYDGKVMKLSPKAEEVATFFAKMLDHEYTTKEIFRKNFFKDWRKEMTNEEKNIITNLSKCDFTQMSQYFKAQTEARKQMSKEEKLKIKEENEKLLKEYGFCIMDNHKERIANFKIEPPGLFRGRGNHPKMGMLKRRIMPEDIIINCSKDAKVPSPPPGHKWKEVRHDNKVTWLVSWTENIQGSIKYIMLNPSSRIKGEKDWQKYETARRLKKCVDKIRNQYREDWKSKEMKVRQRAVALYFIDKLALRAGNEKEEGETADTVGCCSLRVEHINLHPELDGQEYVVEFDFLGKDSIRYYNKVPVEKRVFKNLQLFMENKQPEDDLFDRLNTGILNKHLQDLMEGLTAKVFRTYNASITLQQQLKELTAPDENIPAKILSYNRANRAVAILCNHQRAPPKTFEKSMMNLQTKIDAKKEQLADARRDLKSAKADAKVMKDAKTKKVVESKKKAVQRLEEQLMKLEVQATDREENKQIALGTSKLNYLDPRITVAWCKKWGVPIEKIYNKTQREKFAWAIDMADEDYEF

[3] = test system: various cancer cells

CC[C@@]1(O)C(=O)OCc2c1cc1n(c2=O)Cc2c-1nc1cc(F)c(C)c3c1c2[C@@H](N)CC3 [exatecan, (1S,9S)-1-amino-9-ethyl-5-fluoro-2,3-dihydro-9-hydroxy-4-methyl-1H,12H-benzo[de]pyrano[3′,4′:6,7]indolizino[1,2-b]quinoline-10,13(9H,15H)-dione]
antitumor effect [1]: potent antitumor effect | inhibitory activity on topoisomerase I [2]: higher than SN-38 | in vitro cytocidal activity ([3]; against various cancer cells): higher in vitro cytocidal activity was confirmed | effect against resistant cancer cells ([3]; cancer cells resistant to SN-38 or the like due to expression of P-glycoprotein): confirmed to have the effect
